The target in experiment [1] is T1, Amine oxidase [flavin-containing] A (Rattus norvegicus, UniProt P21396).
T1 sequence (P21396 whole entry): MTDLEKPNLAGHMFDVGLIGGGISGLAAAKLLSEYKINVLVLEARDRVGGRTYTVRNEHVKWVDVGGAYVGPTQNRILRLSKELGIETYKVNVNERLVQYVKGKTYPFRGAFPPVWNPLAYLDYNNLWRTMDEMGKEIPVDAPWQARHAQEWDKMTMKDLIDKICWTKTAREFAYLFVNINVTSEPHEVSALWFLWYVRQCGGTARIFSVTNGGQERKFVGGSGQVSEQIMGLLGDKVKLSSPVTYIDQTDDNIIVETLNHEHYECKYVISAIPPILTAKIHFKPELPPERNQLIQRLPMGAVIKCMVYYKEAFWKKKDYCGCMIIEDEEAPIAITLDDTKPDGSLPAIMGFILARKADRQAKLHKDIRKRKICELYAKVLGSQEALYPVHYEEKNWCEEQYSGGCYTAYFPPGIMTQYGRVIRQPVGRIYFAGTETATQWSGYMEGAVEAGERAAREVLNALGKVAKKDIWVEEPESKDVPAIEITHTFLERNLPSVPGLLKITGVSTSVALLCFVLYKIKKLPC
In words: Competitive inhibition of MAOA in rat liver homogenate by spectrophotometrically. Type of experiment: tissue-based.

The species entered for the next experiment is Rattus norvegicus. In words: Selectivity index, ratio of Ki for rat MAOA to Ki for rat MAOB.
The target of experiment [2] is T2, Amine oxidase [flavin-containing] B (Rattus norvegicus, UniProt P19643).
T2 sequence (P19643 whole entry): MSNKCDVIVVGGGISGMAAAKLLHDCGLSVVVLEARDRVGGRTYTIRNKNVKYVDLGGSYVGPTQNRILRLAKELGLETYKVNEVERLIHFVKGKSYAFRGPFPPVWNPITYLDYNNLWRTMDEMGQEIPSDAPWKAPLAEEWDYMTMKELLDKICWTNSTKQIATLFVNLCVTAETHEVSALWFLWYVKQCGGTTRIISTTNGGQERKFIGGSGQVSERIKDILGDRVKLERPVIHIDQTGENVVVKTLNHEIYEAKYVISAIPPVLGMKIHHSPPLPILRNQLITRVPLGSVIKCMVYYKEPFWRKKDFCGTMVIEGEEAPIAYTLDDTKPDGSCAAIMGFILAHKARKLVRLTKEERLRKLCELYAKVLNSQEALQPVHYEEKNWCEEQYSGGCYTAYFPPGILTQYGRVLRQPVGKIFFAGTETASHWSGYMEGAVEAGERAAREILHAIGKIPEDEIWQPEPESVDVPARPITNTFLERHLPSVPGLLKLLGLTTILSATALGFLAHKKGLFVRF
In words: Competitive inhibition of MAOB in rat liver homogenate by spectrophotometrically. It counts as tissue-based.

The values below come from ChEMBL document CHEMBL1152549, “Synthesis and molecular modeling of some novel hexahydroindazole derivatives as potent monoamine oxidase inhibitors” (Bioorg Med Chem, 2009).

A word on the IC50: it is the point on the concentration scale where inhibition reaches its midpoint. Lower therefore signals higher potency. Usually Ki stands for the equilibrium dissociation constant of an inhibitor or competing ligand from its target. Read a low Ki as higher affinity.

In experiment [1], `CCNC(=S)N1NC2=C(CCCC2)C1c1cccs1` (configuration not stated) displayed an IC50 of 3010 nM and a Ki of 1720 nM. The Ratio Ki in the experiment filed under Rattus norvegicus was determined as 0.57. In addition, in experiment [2], the concentration for half-maximal inhibition (IC50) worked out at 90100 nM and the affinity corresponds to a Ki of 3010 nM.
In experiment [2], `O=C(NCCN1CCOCC1)c1ccc(Cl)cc1` [MOCLOBEMIDE] showed an IC50 of 89600 nM and a Ki of 1080 nM.
`S=C(Nc1ccccc1)N1NC2=C(CCCC2)C1c1ccco1` (configuration not stated): the IC50 amounted to 780 nM in experiment [1] and 80400 nM in experiment [2]. For the same molecule, the values for the Ki in experiment [1] and in experiment [2] were 4.22 nM and 1230 nM, respectively. The Ratio Ki in the experiment listed under Rattus norvegicus came out at 0.0034.
For `S=C(Nc1ccccc1)N1NC2=C(CCCC2)C1c1cccs1` (configuration not stated) the same measures were 700 nM, 75100 nM, 39.1 nM, 92300 nM and 0.004.
In experiment [1], `CNC(=S)N1NC2=C(CCCC2)C1c1ccco1` (configuration not stated) came in with an IC50 of 108000 nM and a Ki of 8820 nM. Besides, the Ratio Ki in the experiment filed under Rattus norvegicus was determined as 4.2. In experiment [2], this molecule came in with an IC50 of 2990 nM and a Ki of 2100 nM.
For `NC(=S)N1NC2=C(CCCC2)C1c1ccco1` (configuration not stated) the same measures were 80200 nM, 3900 nM, 4060, 1370 nM and 0.96 nM.
In experiment [1], `NC(=S)N1NC2=C(CCCC2)C1c1cccs1` (configuration not stated) came in with an IC50 of 95200 nM and a Ki of 2990 nM. Further, the Ratio Ki in the experiment listed under Rattus norvegicus was determined as 3320. In experiment [2], this molecule yielded an IC50 of 1260 nM and a Ki of 0.9 nM.
In experiment [1], `CCNC(=S)N1NC2=C(CCCC2)C1c1ccco1` (configuration not stated) registered an IC50 of 110000 nM and a Ki of 4260 nM. Further, in the experiment filed under Rattus norvegicus, the Ratio Ki is 2.19. Also, in experiment [2], the IC50 was found to be 2770 nM and the Ki stood at 1950 nM.
For `CNC(=S)N1NC2=C(CCCC2)C1c1cccs1` (configuration not stated) the same measures were 62300 nM, 5010 nM, 2.96, 2610 nM and 1690 nM.
